The values below come from US5405839A, “Vitamin B12 derivative, preparation process thereof, and use thereof” (Teijin Limited, priority 1989, dated 1995).

Series [1] concerns the target T1, diol dehydrase (Klebsiella oxytoca, UniProt Q59470+Q59471+Q59472).
T1 construct: (alpha beta gamma)2 hexamer
T1 sequence (Q59470 1-554): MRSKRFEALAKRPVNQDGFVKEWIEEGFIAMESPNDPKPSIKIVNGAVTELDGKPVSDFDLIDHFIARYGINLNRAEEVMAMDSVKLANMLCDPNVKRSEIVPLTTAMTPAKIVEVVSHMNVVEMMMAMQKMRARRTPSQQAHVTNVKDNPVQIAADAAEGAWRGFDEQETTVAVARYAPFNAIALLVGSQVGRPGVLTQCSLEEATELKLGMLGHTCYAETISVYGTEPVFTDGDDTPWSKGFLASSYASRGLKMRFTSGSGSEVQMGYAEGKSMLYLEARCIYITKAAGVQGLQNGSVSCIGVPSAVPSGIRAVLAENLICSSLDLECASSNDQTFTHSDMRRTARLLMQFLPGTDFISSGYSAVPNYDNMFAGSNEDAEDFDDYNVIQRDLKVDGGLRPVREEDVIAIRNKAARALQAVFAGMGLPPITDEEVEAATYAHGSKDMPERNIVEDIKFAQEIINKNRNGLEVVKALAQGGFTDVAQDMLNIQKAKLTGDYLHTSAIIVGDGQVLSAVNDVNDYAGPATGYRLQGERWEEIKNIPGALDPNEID
T1 sequence (Q59471 1-224): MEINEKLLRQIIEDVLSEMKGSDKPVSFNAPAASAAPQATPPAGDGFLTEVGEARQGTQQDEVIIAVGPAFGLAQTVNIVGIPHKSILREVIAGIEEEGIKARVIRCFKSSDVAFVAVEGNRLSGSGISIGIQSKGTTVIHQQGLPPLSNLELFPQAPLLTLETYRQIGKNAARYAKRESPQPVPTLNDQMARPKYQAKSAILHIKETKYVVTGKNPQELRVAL
T1 sequence (Q59472 1-173): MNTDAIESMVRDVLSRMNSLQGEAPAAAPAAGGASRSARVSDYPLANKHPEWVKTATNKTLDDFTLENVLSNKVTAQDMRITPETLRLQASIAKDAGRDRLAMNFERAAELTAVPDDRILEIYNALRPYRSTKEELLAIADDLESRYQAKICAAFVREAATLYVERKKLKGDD
Kind of series: Inhibition constant (Ki) of vitamin B12 derivative against vitamin B12 coenzyme, Lineweaver-Burk plot. The class given is biochemical. The conditions noted are these: against varied adenosylcobalamin. On the procedure:
(§1) As the enzyme, diol dehydrase was employed. […] Diol dehydrase was highly purified from Klebsiella pneumoniae ATCC 8724 according to the method of Poznanskaya (Arch. Biochem. Biophys., vol. 194, p. 379-386, 1979) and adjusted to a solution of 0.3 Unit/ml with 0.05 M potassium phosphate buffer (pH 8.0). As the substrate of this enzyme, a 1 M aqueous 1,2-propanediol solution was employed.
(§2) In an ice-water bath, 0.1 ml of the substrate solution, 0.1 ml of 0.5 M aqueous potassium chloride solution, 0.1 ml of diol dehydrase solution, and 0.6 ml of 0.05 M potassium phosphate buffer (pH 8.0) were mixed, and to the mixture were added, in the dark, 0.1 ml of 0.2 mM vitamin B12 coenzyme (adenosylcobalamin), vitamin B12 (cyanocobalamin) or each vitamin B12 derivative prepared in Examples 1 to 10. After the mixture was incubated in the dark at 37° C. for 10 minutes, 1 ml of 0.1M potassium citrate buffer (pH 3.6) was added to stop the enzyme reaction, and then 0.5 ml of 0.1% aqueous 3-methyl-2-benzothianolinonehydrazone was added, followed by a continuation of the incubation at 37° C. for 15 minutes. To the mixture was added 1 ml of water, and the absorbance at 305 nm was measured by a Shimazu Double-beam Spectrophotometer Model UV-140-02 Model and the coenzyme activity (kcat) was calculated.
Namely, in the method 1) in Example 11, by adding adequately varied concentration of the vitamin B12 coenzyme (adenosylcobalamin) to a fixed concentration of each vitamin B12 derivative, the enzyme activity was respectively assayed and the inhibition constant (Ki) was determined by the Lineweaver-Burk plot. The inhibitory activity is stronger when the Ki is smaller.

In series [2] the target is T1, diol dehydrase. Kind of series: Assay of coenzyme activity (kcat) with diol dehydrase. Format: biochemical, Klebsiella pneumoniae ATCC 8724. The conditions noted are these: for coenzyme activity (in words): diol dehydrase; for Kcat (coenzyme activity): diol dehydrase, 1,2-propanediol substrate, 37° C., pH 8.0; method 1) or 2); for Kcat, activity relative to the vitamin B12 coenzyme (adenosylcobalamin): relative to adenosylcobalamin = 100. How it is done:
The coenzyme activities of vitamin B12 derivatives prepared in Examples 1 to 10 were assayed according to the two methods shown below.
1) Assay of coenzyme activity by using 3-methyl-2-benzothiazolinonehydrazone
The assay was carried out according to the method of Toraya et al. (J. Biol. Chem., vol. 252, p. 963-970, 1977).
as §1, §2
2) Assay of coenzyme activity using alcohol dehydrogenase and reduced nicotinamide adenine dinucleotide
The assay was carried out according to the method of Toraya et al. (Biochemistry, vol. 18, p. 417-426, 1979).
The diol dehydrase employed was diluted with 0.05 M potassium phosphate buffer (pH 8.0) to 0.15 Unit/ml, and 1M aqueous propanediol was used as the substrate solution. By using a 0.05 M potassium phosphate buffer (pH 8.0), 0.5 mg/ml of alcohol dehydrogenase and a 2 mM reduced nicotinamide adenine dinucleotide were prepared. To a mixture of 0.1 ml of the substrate solution, 0.1 ml of the alcohol dehydrogenase solution, 0.1 ml of the reduced nicotinamide adenine dinucleotide solution, and 0.5 ml of the 0.05 M potassium phosphate buffer (pH 8.0) was added 0.1 ml of the diol dehydrase solution. After the mixture was incubated at 37° C. for 5 minutes, there were added, in the dark, 0.1 ml of 0.2 mM vitamin B12 coenzyme (adenosylcobalamin), vitamin B12 (cyanocobalamin) or each vitamin B12 derivative prepared in Examples 1 to 10, and the coenzyme activity (kcat) was calculated by continuously monitoring the decrease in absorbance at 340 nm, by a Union Spectrophotometer SM-401.
The coenzyme activity is higher when the kcat is larger. The activity relative to the vitamin B12 coenzyme (adenosylcobalamin) is also shown in % in Table 1.

Series [3] deals with T1, diol dehydrase. Kind of series: Michaelis constant (Km) of vitamin B12 derivative, Lineweaver-Burk plot. The class given is biochemical, Klebsiella pneumoniae ATCC 8724. How it is done:
as §1, §2
Namely, in the method 1) in Example 11, the respective enzyme activities were assayed by suitably varying the concentration of the vitamin B12 derivative, and Michaelis constant (km) was determined by the Lineweaver Burk plot. The affinity (binding ability) for the enzyme is higher when the Km is smaller.

Series [4] concerns mouse leukemia L1210 cells. Kind of series: Viability of cultured L1210 cells on day 9 by Trypan blue staining. The class given is cell-based. The conditions noted are these: day 9, MTX 200 nM only; 12960 min. How it is done: The mouse leukemia L1210 cells employed for this experiment were grown and maintained intraperitoneally in DBA mice, taken out together with ascites and aseptically cultured as adapted for RPMI-1640 medium for animal cell culture supplemented with fetal bovine serum (5 v/v %) and ethanolamine (1.2 mg/liter), but devoid of vitamin B12 (cyanocobalamin). Also, 100,000 units of penicillin and 100 mg of streptomycin were added as the antimicrobial agent, per liter of this medium. The L1210 cells grown and adapted in vitro were further adapted to the above-mentioned medium containing 7.0 g/liter of bovine serum albumin in place of the fetal bovine serum, following the method of Fujii et al. (J. Biol. Chem., vol. 256, p. 10329-10334, 1981), and then used for experiment.
To examine the L1210 growth inhibitory activities of the vitamin B12 derivatives synthesized in Examples 2 and 5, first L1210 cells adapted to albumin were inoculated at a density of 5×10^4 cells/ml into the same medium containing folic acid at 10 μM concentration, and a preculture was carried out under a humidified atmosphere of CO2 /air (5%/95%) at 37° C. for 3 days. The cells grown were centrifuged, then washed twice with the same medium containing no folic acid, to prepare an inoculum cell suspension of about 5×10^6 cells/mi. […]

For orientation: Ki means a measure of affinity in units of concentration, obtained from inhibition or displacement. With “2-(5,6-dimethylbenzimidazolyl)ethyladenosylcobinamide phosphoric acid [Example 6]”, the Ki at diol dehydrase [1] amounted to 52 µM. The “coenzyme activity (in words)” value at diol dehydrase [2] is given as “no coenzyme activity”.
The term Km denotes the concentration of substrate that gives half-maximal velocity. As to “3-(5,6-dimethylbenzimidazolyl)propyladenosylcobinamide phosphoric acid [Example 7]”, the Km at diol dehydrase [3] was found to be 0.82 µM. Also, on diol dehydrase [2], the “Kcat (coenzyme activity)” value is 199 s⁻¹ and the “Kcat, activity relative to the vitamin B12 coenzyme (adenosylcobalamin)” value stood at 59%.
Regarding “3-imidazolylpropyladenosylcobinamide phosphoric acid [Example 10]”, on diol dehydrase [3], the Km was 1.1 µM. Moreover, on diol dehydrase [1], the Ki was found to be 1 µM. Besides, on diol dehydrase [2], the “Kcat (coenzyme activity)” value was 3 s⁻¹ and the “Kcat, activity relative to the vitamin B12 coenzyme (adenosylcobalamin)” value turned out to be 0.9%.
On to “4-(5,6-dimethylbenzimidazolyl)butyladenosylcobinamide phosphoric acid [Example 8]”, for which the Km on diol dehydrase [3] turned out to be 11.2 µM. At diol dehydrase [2], the “Kcat (coenzyme activity)” value was 167 s⁻¹ and the “Kcat, activity relative to the vitamin B12 coenzyme (adenosylcobalamin)” value amounted to 50%.
Regarding “6-(5,6-dimethylbenzimidazolyl)hexyladenosylcobinamide phosphoric acid [Example 9]”, the inhibitory constant (Ki) on diol dehydrase [1] came to 38 µM. Also, at diol dehydrase [2], the “coenzyme activity (in words)” value was “no coenzyme activity”.
With `CN(Cc1cnc2nc(N)nc(N)c2n1)c1ccc(C(=O)N[C@@H](CCC(=O)O)C(=O)O)cc1` [MTX, methotrexate], the “cells found dead (Trypan blue)” value in series [4] is 20%.
As to `C/C1=C2/[N-][C@H]([C@H](CC(N)=O)[C@@]2(C)CCC(=O)NC[C@@H](C)OP(=O)([O-])O[C@H]2[C@@H](O)[C@@H](n3cnc4cc(C)c(C)cc43)O[C@@H]2CO)[C@]2(C)N=C(/C(C)=C3N=C(/C=C4N=C1[C@@H](CCC(N)=O)C\4(C)C)[C@@H](CCC(N)=O)[C@]\3(C)CC(N)=O)[C@@H](CCC(N)=O)[C@]2(C)CC(N)=O.[CH2-][C@H]1O[C@@H](n2cnc3c(N)ncnc32)[C@H](O)[C@@H]1O.[Co]` [Vitamin B12 coenzyme, adenosylcobalamin, reference compound], the Km on diol dehydrase [3] was 0.8 µM. For the same molecule, on diol dehydrase [2], the “Kcat (coenzyme activity)” value amounted to 337 s⁻¹ and the “Kcat, activity relative to the vitamin B12 coenzyme (adenosylcobalamin)” value worked out at 100%.
